Data from US8536192B2, “6,7-unsaturated-7-carbamoyl substituted morphinan derivative” (priority 2005, dated 2013).
Read-outs that look alike come from different tables or passages of the source.

How the values were obtained:
[1] = test system: carbon powder transport of inhibitory activity by morphine; test: Mouse carbon powder transport assay (antagonism of morphine-inhibited small intestine transport); assay type: in vivo; conditions: sc, 1 h, test compound 3 mg/kg subcutaneously, 15 minutes before morphine 3 mg/kg
Method: 1) Preparation of Test Diet (Carbon Powder)
Using a 10 w/v % arabic gum aqueous solution, a 5 w/v % active carbon solution was prepared, which was used as a test diet.
A ddY line male mouse (5 to 6 weeks old) was used. The mouse was fasted from about 20 or more hours before assay initiation, and water was given ad lib.
The test compound was dissolved in a solvent (DMAA/Solutol/5% meglumine=15/15/70).
Morphine hydrochloride was dissolved in a physiological saline. The test compound, the above solvent and morphine were all administered at a liquid amount of 10 mL/kg.
The test compound 3 mg/kg (test compound administration group) or the solvent (solvent administration group) were subcutaneously administered and, after 15 minutes, amount of 3 mg/kg of morphine was administered to all groups. As a control group, the solvent was subcutaneously administered and, after 15 minutes, a physiological saline was administered.
The test diet 10 mL/kg was orally administered at 15 minutes after administration of morphine. At thirty minutes after administration of the test diet (60 minutes after administration of the test substance), all mice were isolated from esophagus to an ileocecal part near a stomach cardia part. A distance from pyloric part of the stomach to an ileocecal part (full length of small intestine) and a distance until a carbon powder reaching front part (carbon powder movement distance) were measured. The antagonistic activity on the carbon powder transport of inhibitory activity by morphine was calculated as MPE (%) using the following equation. Transport rate (%)=(carbon powder movement distance)/full length of small intestine (cm))×100 M.P.E. (%)={(small intestine transport rate (%) of each individual of test compound administration group−average small intestine transport rate (%) of solvent administration group)/(average small intestine transport rate (%) of control group−average small intestine transport rate (%) of solvent administration group)}×100

[2] = biological target: opioid δ receptor (Rattus norvegicus (Rat), UniProt P33533); test: Binding assay of opioid δ receptor ([3H]-DADLE, rat cerebrum membrane)
Method: (§1) 1) Method of Preparing Membrane Specimen for Binding Assay
(§2) A rat cerebrum (Slc: SD) which had been stored at −80° C. was used. To a cerebrum which had been weighed was added a 20-fold amount of ice-cooled 10 mM Tris-HCl buffer (pH 7.0), and the mixture was homogenized (25000 rpm, 30 seconds) with Histocolon (NITI-ON), and centrifuged at 36600×g for 20 minutes. To the resulting pellet was added 15 ml of the same buffer, and the mixture was treated with Histocolon similarly, and centrifuged. This washing work was performed two times. After centrifugation, to the resulting pellet was added 15 mL of a 50 mM Tris-HCl buffer (pH 7.4), and this was treated with Histocolon, and finally resuspended in a 10-fold amount of the same buffer, which was used as a crude membrane fraction (Life Sci. 48, 111-116, 1991). The prepared membrane specimen was frozen and stored at −80° C., and at an assay, the specimen was rapidly thawed, and diluted to about 900 μg/mL with a 50 mM Tris-HCl buffer (pH 7.4) after the centrifugation and Histocolon treatment, and was used in an experiment. For measuring a protein concentration of the membrane specimen, Micro BCA Protein Assay Kit (PIERCE) was used.
2) Method of δ Receptor Binding Assay and Data Analysis
Into a tube was placed 480 μl of a rat cerebrum membrane fraction to which 100 mM choline chloride, 3 mM MnCl2 and 100 nM DAMGO had been added, and this was incubated at 25° C. for 2 hours. […] After washing, the filter was transferred to a mini vial for liquid scintillation counter, 5 mL of a scintillator (Cleasol I) was added, this was allowed to stand overnight, and the radioactivity was measured for 3 minutes with a liquid scintillation counter Tri-Carb 2200CA (PACKARD).

[3] = biological target: opioid μ receptor (Rattus norvegicus (Rat), UniProt P33535); test: Binding assay to opioid μ receptor ([3H]-DAMGO, rat cerebrum membrane)
Method: as §1
as §2, with “(pH 7.0), the mixture” for “(pH 7.0), and the mixture”, “(pH 7.4), this was” for “(pH 7.4), and this was”, “Histocolon, and this was finally resuspended” for “Histocolon, and finally resuspended”, “and at a test, the specimen” for “and at an assay, the specimen”
2) Method of μ Receptor Binding Assay and Data Analysis
After washing, the filter was transferred to a mini vial for liquid scintillation counter, 5 mL of a scintillator (Cleasol I) was added, and this was allowed to stand overnight, and the radioactivity was measured for 3 minutes with a liquid scintillation counter Tri-Carb 2200CA (PACKARD).

[4] = [3H]-DADLE, rat cerebrum membrane fraction, read-out: Ki
[5] = [3H]-DAMGO, rat cerebrum membrane fraction, read-out: Ki

Structure (SMILES)	percent antagonism of morphine-inhibited transport (M.P.E.) at 3 mg/kg [1] [%]	Ki [3, 5] [nM]	Ki [2] [nM]	Ki [3] [nM]	further results
COC(=O)C1(NC(=O)C2=C(O)[C@@H]3Oc4c(O)ccc5c4[C@@]34CCN(CC3CC3)[C@H](C5)[C@]4(O)C2)CCCC1 [Compound I-133]	107	4.99	–	–	Ki [2, 4]: 9.85 nM
COCC(C)(C)NC(=O)C1=C(O)[C@@H]2Oc3c(O)ccc4c3[C@@]23CCN(CC2CC2)[C@H](C4)[C@]3(O)C1 [Compound I-286]	70.6	–	2.46	14	–
CCN(CC)S(=O)(=O)c1ccc(OC)c(NC(=O)C2=C(O)[C@@H]3Oc4c(O)ccc5c4[C@@]34CCN(CC3CC3)[C@H](C5)[C@]4(O)C2)c1 [Compound I-229]	39.7	1.3	5.9	–	–
CC(C)NC(=O)C1=C(NS(=O)(=O)c2ccc(Cl)cc2)[C@@H]2Oc3c(O)ccc4c3[C@@]23CCN(CC2CC2)[C@H](C4)[C@]3(O)C1 [Compound I-244]	71.6	–	–	–	–
CN(C)c1ccc(NC(=O)C2=C(O)[C@@H]3Oc4c(O)ccc5c4[C@@]34CCN(CC3CC3)[C@H](C5)[C@]4(O)C2)cc1 [Compound I-39]	52	–	41.8	0.33	–
O=C(C1=C(O)[C@@H]2Oc3c(O)ccc4c3[C@@]23CCN(CC2CC2)[C@H](C4)[C@]3(O)C1)N1CCCC1 [Compound I-7]	–	–	7.4	–	–
O=C(Nc1cccc(C(=O)O)c1)C1=C(O)[C@@H]2Oc3c(O)ccc4c3[C@@]23CCN(CC2CC2)[C@H](C4)[C@]3(O)C1 [Compound I-188]	74.6	–	3.01	17.3	–
Cc1noc(C(C)(C)NC(=O)C2=C(O)[C@@H]3Oc4c(O)ccc5c4[C@@]34CCN(CC3CC3)[C@H](C5)[C@]4(O)C2)n1 [Compound I-285]	82.5	7.29	5.77	–	–
COC(=O)C1(NC(=O)C2=C(O)[C@@H]3Oc4c(O)ccc5c4[C@@]34CCN(CC3CC3)[C@H](C5)[C@]4(O)C2)CC1 [Compound I-135]	59.7	–	–	–	Ki ([2]; read-out: Ki): 9.76 nM; Ki ([3]; read-out: Ki): 1.58 nM
O=C(Nc1ccc([N+](=O)[O-])cn1)C1=C(O)[C@@H]2Oc3c(O)ccc4c3[C@@]23CCN(CC2CC2)[C@H](C4)[C@]3(O)C1 [Compound I-208]	81.2	–	13.3	5.89	–
COC(=O)C1(NC(=O)C2=C(O)[C@@H]3Oc4c(O)ccc5c4[C@@]34CCN(CC3CC3)[C@H](C5)[C@]4(O)C2)CCC1 [Compound I-199]	62.8	–	12.8	9.45	–
CCCCNC(=O)C1=C(O)[C@@H]2Oc3c(O)ccc4c3[C@@]23CCN(CC2CC2)[C@H](C4)[C@]3(O)C1 [Compound I-3]	–	–	8.76	–	–
O=C(NS(=O)(=O)c1cccc(Cl)c1)C1=C(O)[C@@H]2Oc3c(O)ccc4c3[C@@]23CCN(CC2CC2)[C@H](C4)[C@]3(O)C1 [Compound I-122]	31.5	2.7	–	–	–
Cc1cc(NC(=O)C2=C(O)[C@@H]3Oc4c(O)ccc5c4[C@@]34CCN(CC3CC3)[C@H](C5)[C@]4(O)C2)on1 [Compound I-138]	55.8	15.5	–	–	–
O=C(Nc1ccccc1)C1=C(O)[C@@H]2Oc3c(O)ccc4c3[C@@]23CCN(CC2CC2)[C@H](C4)[C@]3(O)C1 [Compound I-10]	–	–	19.9	4.05	–
COCC1(NC(=O)C2=C(O)[C@@H]3Oc4c(O)ccc5c4[C@@]34CCN(CC3CC3)[C@H](C5)[C@]4(O)C2)CC1 [Compound I-283]	63.7	–	3.73	20.1	–
COCC(C)(COC)NC(=O)C1=C(O)[C@@H]2Oc3c(O)ccc4c3[C@@]23CCN(CC2CC2)[C@H](C4)[C@]3(O)C1 [Compound I-288]	101	–	5.36	14.4	–
CC(C)NC(=O)C1=C(NS(=O)(=O)c2ccc(F)cc2)[C@@H]2Oc3c(O)ccc4c3[C@@]23CCN(CC2CC2)[C@H](C4)[C@]3(O)C1 [Compound I-289]	67	12.9	–	–	Ki [2, 4]: 0.47 nM
O=C(Nc1cccnc1)C1=C(O)[C@@H]2Oc3c(O)ccc4c3[C@@]23CCN(CC2CC2)[C@H](C4)[C@]3(O)C1 [Compound I-92]	–	–	5.23	–	–
CN(Cc1ccccc1)C(=O)C1=C(O)[C@@H]2Oc3c(O)ccc4c3[C@@]23CCN(CC2CC2)[C@H](C4)[C@]3(O)C1 [Compound I-13]	–	–	5.02	–	–
Cc1cc(=O)[nH]c2cc(NC(=O)C3=C(O)[C@@H]4Oc5c(O)ccc6c5[C@@]45CCN(CC4CC4)[C@H](C6)[C@]5(O)C3)ccc12 [Compound I-240]	36.3	6.85	11.5	–	–
COc1ccc(NC(=O)C2=C(O)[C@@H]3Oc4c(O)ccc5c4[C@@]34CCN(CC3CC3)[C@H](C5)[C@]4(O)C2)cn1 [Compound I-118]	55.6	–	–	–	–
O=C(NS(=O)(=O)c1ccc(F)cc1)C1=C(O)[C@@H]2Oc3c(O)ccc4c3[C@@]23CCN(CC2CC2)[C@H](C4)[C@]3(O)C1 [Compound I-124]	46.6	–	–	–	Ki ([3]; read-out: Ki): 3.9 nM
O=C(N[C@H]1CCOC1=O)C1=C(O)[C@@H]2Oc3c(O)ccc4c3[C@@]23CCN(CC2CC2)[C@H](C4)[C@]3(O)C1 [Compound I-145]	60.2	28.1	–	–	Ki [2, 4]: 13.9 nM
CC(C)NC(=O)C1=C(O)[C@@H]2Oc3c(O)ccc4c3[C@@]23CCN(CC2CC2)[C@H](C4)[C@]3(O)C1 [Compound I-4, 7-Isopropylaminocarbonylnaltrexone]	–	–	7.38	5.18	–
Cc1ccc2nc(=O)c3c(n2c1)[C@@H]1Oc2c(O)ccc4c2[C@@]12CCN(CC1CC1)[C@H](C4)[C@]2(O)C3 [Compound I-267]	60	0.84	–	–	Ki [2, 4]: 41.5 nM
CC(C)(NC(=O)C1=C(O)[C@@H]2Oc3c(O)ccc4c3[C@@]23CCN(CC2CC2)[C@H](C4)[C@]3(O)C1)c1nc(-c2ccccc2)no1 [Compound I-284]	79.6	–	–	1.13	Ki [2, 4]: 0.91 nM
O=C(NCCOc1ccccc1)C1=C(O)[C@@H]2Oc3c(O)ccc4c3[C@@]23CCN(CC2CC2)[C@H](C4)[C@]3(O)C1 [Compound I-30]	–	–	5.34	–	–
COc1ccc(S(=O)(=O)NC(=O)C2=C(O)[C@@H]3Oc4c(O)ccc5c4[C@@]34CCN(CC3CC3)[C@H](C5)[C@]4(O)C2)cc1 [Compound I-123]	44.1	1.68	–	–	–
